Converted amounts (≈) assume the structure as drawn.
Legend:
Test in all cases: In vitro antibacterial activity, agar plate dilution method (MIC)
E.cloacae 963 = assay type: cell-based; settings: Enterobacter cloacae; E.cloacae 963; Mueller Hinton agar, inoculum 10⁶ CFU/ml, 37°C, 16 hours; read-out: Minimum Inhibitory Concentration (MIC: µg/ml)
Protocol: (§1) The in vitro antibacterial activities of the compounds of the present invention against various microorganisms, were measured by the following agar plate dilution method. One platinum loopfull of each test microorganism incubated overnight in Mueller Hinton broth, was inoculated to Mueller Hinton agar (inoculum size: l0⁶ CFU/ml). Such culture media containing various antibiotics in various concentrations were prepared. After incubation at 37°C for l6 hours, the minimum inhibitory concentrations (MIC: µg/ml) were measured. As comparative compounds, Cefotaxime, Ceftazidime and the compounds of Reference Examples l to 4 were employed.

S.aureus 209P NIHJ-JC1 = assay type: cell-based; settings: Staphylococcus aureus; S.aureus 209P NIHJ-JC1; Mueller Hinton agar, inoculum 10⁶ CFU/ml, 37°C, 16 hours; read-out: Minimum Inhibitory Concentration (MIC: µg/ml)
Protocol: as §1

E.coli CSH(RE45) = assay type: cell-based; settings: Escherichia coli, 16 h, read-out: Minimum Inhibitory Concentration (MIC: µg/ml)
Protocol: as §1

Ps.aeruginosa IFO3445 = assay type: cell-based; settings: Pseudomonas aeruginosa; Ps.aeruginosa IFO3445; Mueller Hinton agar, inoculum 10⁶ CFU/ml, 37°C, 16 hours; read-out: Minimum Inhibitory Concentration (MIC: µg/ml)
Protocol: as §1

E.coli CSH2 (RK1) = assay type: cell-based; settings: Escherichia coli, 16 h, read-out: Minimum Inhibitory Concentration (MIC: µg/ml)
Protocol: as §1

Ps.aeruginosa AKR17 = assay type: cell-based; settings: Pseudomonas aeruginosa; Ps.aeruginosa AKR17; Mueller Hinton agar, inoculum 10⁶ CFU/ml, 37°C, 16 hours; read-out: Minimum Inhibitory Concentration (MIC: µg/ml)
Protocol: as §1

M.luteus ATCC9341 = assay type: cell-based; settings: Micrococcus luteus; M.luteus ATCC9341; Mueller Hinton agar, inoculum 10⁶ CFU/ml, 37°C, 16 hours; read-out: Minimum Inhibitory Concentration (MIC: µg/ml)
Protocol: as §1

E.coli GN5482 = assay type: cell-based; settings: Escherichia coli; E.coli GN5482 (β-Lactamase-producing strain); Mueller Hinton agar, inoculum 10⁶ CFU/ml, 37°C, 16 hours; read-out: Minimum Inhibitory Concentration (MIC: µg/ml)
Protocol: as §1

P.vulgaris HX-19 = assay type: cell-based; settings: Proteus vulgaris, HX19; P.vulgaris HX-19; Mueller Hinton agar, inoculum 10⁶ CFU/ml, 37°C, 16 hours; read-out: Minimum Inhibitory Concentration (MIC: µg/ml)
Protocol: as §1

K.pneumoniae No. 42 = assay type: cell-based; settings: Klebsiella pneumoniae; K.pneumoniae No. 42 (β-Lactamase-producing strain); Mueller Hinton agar, inoculum 10⁶ CFU/ml, 37°C, 16 hours; read-out: Minimum Inhibitory Concentration (MIC: µg/ml)
Protocol: as §1

E.cloacae Nek 39 = assay type: cell-based; settings: Enterobacter cloacae, NEK39; E.cloacae Nek 39 (β-Lactamase-producing strain); Mueller Hinton agar, inoculum 10⁶ CFU/ml, 37°C, 16 hours; read-out: Minimum Inhibitory Concentration (MIC: µg/ml)
Protocol: as §1

A.calcoaceticus No. 4 = assay type: cell-based; settings: Acinetobacter calcoaceticus; A.calcoaceticus No. 4; Mueller Hinton agar, inoculum 10⁶ CFU/ml, 37°C, 16 hours; read-out: Minimum Inhibitory Concentration (MIC: µg/ml)
Protocol: as §1

C.freundii GN346/16 = assay type: cell-based; settings: Citrobacter freundii; C.freundii GN346/16; Mueller Hinton agar, inoculum 10⁶ CFU/ml, 37°C, 16 hours; read-out: Minimum Inhibitory Concentration (MIC: µg/ml)
Protocol: as §1

C.freundii GN346 = assay type: cell-based; settings: Citrobacter freundii; C.freundii GN346 (β-Lactamase-producing strain); Mueller Hinton agar, inoculum 10⁶ CFU/ml, 37°C, 16 hours; read-out: Minimum Inhibitory Concentration (MIC: µg/ml)
Protocol: as §1

K.oxytoca GN10650 = assay type: cell-based; settings: Klebsiella oxytoca; K.oxytoca GN10650 (β-Lactamase-producing strain); Mueller Hinton agar, inoculum 10⁶ CFU/ml, 37°C, 16 hours; read-out: Minimum Inhibitory Concentration (MIC: µg/ml)
Protocol: as §1

S.marcescens IAM 1184 = assay type: cell-based; settings: Serratia marcescens, IAM1184; S.marcescens IAM 1184; Mueller Hinton agar, inoculum 10⁶ CFU/ml, 37°C, 16 hours; read-out: Minimum Inhibitory Concentration (MIC: µg/ml)
Protocol: as §1

E.coli NIHJ JC2 = assay type: cell-based; settings: Escherichia coli, NIHJJC2; E.coli NIHJ JC2; Mueller Hinton agar, inoculum 10⁶ CFU/ml, 37°C, 16 hours; read-out: Minimum Inhibitory Concentration (MIC: µg/ml)
Protocol: as §1

S.epidermidis IAM12012 = assay type: cell-based; settings: Staphylococcus epidermidis; S.epidermidis IAM12012; Mueller Hinton agar, inoculum 10⁶ CFU/ml, 37°C, 16 hours; read-out: Minimum Inhibitory Concentration (MIC: µg/ml)
Protocol: as §1

S.marcescens No. 16-2 = assay type: cell-based; settings: Serratia marcescens, NO.162; S.marcescens No. 16-2 (β-Lactamase-producing strain); Mueller Hinton agar, inoculum 10⁶ CFU/ml, 37°C, 16 hours; read-out: Minimum Inhibitory Concentration (MIC: µg/ml)
Protocol: as §1

Ps.aeruginosa AK 109 = assay type: cell-based; settings: Pseudomonas aeruginosa, AK109; Ps.aeruginosa AK 109; Mueller Hinton agar, inoculum 10⁶ CFU/ml, 37°C, 16 hours; read-out: Minimum Inhibitory Concentration (MIC: µg/ml)
Protocol: as §1

M.morganii GN5407 = assay type: cell-based; settings: Morganella morganii; M.morganii GN5407 (β-Lactamase-producing strain); Mueller Hinton agar, inoculum 10⁶ CFU/ml, 37°C, 16 hours; read-out: Minimum Inhibitory Concentration (MIC: µg/ml)
Protocol: as §1

P.vulgaris No. 33 = assay type: cell-based; settings: Proteus vulgaris; P.vulgaris No. 33 (β-Lactamase-producing strain); Mueller Hinton agar, inoculum 10⁶ CFU/ml, 37°C, 16 hours; read-out: Minimum Inhibitory Concentration (MIC: µg/ml)
Protocol: as §1

S.aureus BB5703 = assay type: cell-based; settings: Staphylococcus aureus; S.aureus BB5703; Mueller Hinton agar, inoculum 10⁶ CFU/ml, 37°C, 16 hours; read-out: Minimum Inhibitory Concentration (MIC: µg/ml)
Protocol: as §1

K.pneumoniae PCI-602 = assay type: cell-based; settings: Klebsiella pneumoniae, PCI602; K.pneumoniae PCI-602; Mueller Hinton agar, inoculum 10⁶ CFU/ml, 37°C, 16 hours; read-out: Minimum Inhibitory Concentration (MIC: µg/ml)
Protocol: as §1

S.aureus JS1 = assay type: cell-based; settings: Staphylococcus aureus; S.aureus JS1 (β-Lactamase-producing strain); Mueller Hinton agar, inoculum 10⁶ CFU/ml, 37°C, 16 hours; read-out: Minimum Inhibitory Concentration (MIC: µg/ml)
Protocol: as §1

Ps.cepacia 23 = assay type: cell-based, Pseudomonas cepacia; settings: Burkholderia cepacia; Ps.cepacia 23; Mueller Hinton agar, inoculum 10⁶ CFU/ml, 37°C, 16 hours; read-out: Minimum Inhibitory Concentration (MIC: µg/ml)
Protocol: as §1

Ps.maltophilia GN 12873 = assay type: cell-based, Pseudomonas maltophilia; settings: Stenotrophomonas maltophilia, GN12873; Ps.maltophilia GN 12873 (β-Lactamase-producing strain); Mueller Hinton agar, inoculum 10⁶ CFU/ml, 37°C, 16 hours; read-out: Minimum Inhibitory Concentration (MIC: µg/ml)
Protocol: as §1

| SMILES | MIC (E.cloacae 963) [µg/mL] | MIC (S.aureus 209P NIHJ-JC1) [µg/mL] | MIC (E.coli CSH(RE45)) [µg/mL] | MIC (Ps.aeruginosa IFO3445) [µg/mL] | MIC (E.coli CSH2 (RK1)) [µg/mL] | MIC (Ps.aeruginosa AKR17) [µg/mL] | MIC (M.luteus ATCC9341) [µg/mL] | MIC (E.coli GN5482) [µg/mL] | MIC (P.vulgaris HX-19) [µg/mL] | MIC (K.pneumoniae No. 42) [µg/mL] | MIC (E.cloacae Nek 39) [µg/mL] | MIC (A.calcoaceticus No. 4) [µg/mL] | MIC (C.freundii GN346/16) [µg/mL] | MIC (C.freundii GN346) [µg/mL] | MIC (K.oxytoca GN10650) [µg/mL] | MIC (S.marcescens IAM 1184) [µg/mL] | MIC (E.coli NIHJ JC2) [µg/mL] | MIC (S.epidermidis IAM12012) [µg/mL] | MIC (S.marcescens No. 16-2) [µg/mL] | MIC (Ps.aeruginosa AK 109) [µg/mL] | other results |
| --- | --- | --- | --- | --- | --- | --- | --- | --- | --- | --- | --- | --- | --- | --- | --- | --- | --- | --- | --- | --- | --- |
| CO/N=C(\C(=O)NC1C(=O)N2C(C(=O)[O-])=C(C[n+]3ccc4cc(O)c(O)cc4c3)CSC12)c1csc(N)n1 (stereo not drawn) [Ex. 1, 7-[2-(2-aminothiazol-4-yl)-2-methoxyiminoacetamido]-3-(6,7-dihydroxy-2-isoquinolinio)-methyl-3-cephem-4-carboxylate] | 0.025 (≈ 0.0449 µM) | 1.56 (≈ 2.8 µM) | 0.78 (≈ 1.4 µM) | 0.78 (≈ 1.4 µM) | < 0.006 | 100 (≈ 180 µM) | 0.1 (≈ 0.18 µM) | 0.39 (≈ 0.701 µM) | < 0.006 | 0.025 (≈ 0.0449 µM) | 0.1 (≈ 0.18 µM) | 0.2 (≈ 0.359 µM) | 0.78 (≈ 1.4 µM) | 25 (≈ 44.9 µM) | 0.78 (≈ 1.4 µM) | 0.0125 (≈ 0.0225 µM) | 0.05 (≈ 0.0898 µM) | 0.78 (≈ 1.4 µM) | 3.12 (≈ 5.61 µM) | 0.78 (≈ 1.4 µM) | MIC (M.morganii GN5407): 0.1 µg/mL (≈ 0.18 µM); MIC (P.vulgaris No. 33): 0.1 µg/mL (≈ 0.18 µM); MIC (S.aureus BB5703): 3.12 µg/mL (≈ 5.61 µM); MIC (K.pneumoniae PCI-602): < 0.006 µg/mL; MIC (S.aureus JS1): 25 µg/mL (≈ 44.9 µM); MIC (Ps.cepacia 23): 0.78 µg/mL (≈ 1.4 µM); MIC (Ps.maltophilia GN 12873): > 100 µg/mL |
| CC(C)ON=C(C(=O)NC1C(=O)N2C(C(=O)[O-])=C(C[n+]3ccc4cc(O)c(O)cc4c3)CS[C@H]12)c1csc(N)n1 (stereo partly drawn) [Ex. 2, 7-[2-(2-aminothiazol-4-yl)-2-isopropoxyiminoacetamido]-3-(6,7-dihydroxy-2-isoquinolinio)methyl-3-cephem-4-carboxylate] | 0.025 (≈ 0.0428 µM) | 1.56 (≈ 2.67 µM) | 0.39 (≈ 0.667 µM) | 0.78 (≈ 1.33 µM) | < 0.006 | 25 (≈ 42.8 µM) | 0.1 (≈ 0.171 µM) | 0.39 (≈ 0.667 µM) | < 0.006 | 0.025 (≈ 0.0428 µM) | 0.05 (≈ 0.0855 µM) | 0.2 (≈ 0.342 µM) | 0.78 (≈ 1.33 µM) | 50 (≈ 85.5 µM) | 0.39 (≈ 0.667 µM) | 0.0125 (≈ 0.0214 µM) | 0.1 (≈ 0.171 µM) | 0.78 (≈ 1.33 µM) | 0.78 (≈ 1.33 µM) | 0.78 (≈ 1.33 µM) | MIC (M.morganii GN5407): 0.05 µg/mL (≈ 0.0855 µM); MIC (P.vulgaris No. 33): 0.05 µg/mL (≈ 0.0855 µM); MIC (S.aureus BB5703): 6.25 µg/mL (≈ 10.7 µM); MIC (K.pneumoniae PCI-602): < 0.006 µg/mL; MIC (S.aureus JS1): 12.5 µg/mL (≈ 21.4 µM); MIC (Ps.cepacia 23): 0.1 µg/mL (≈ 0.171 µM); MIC (Ps.maltophilia GN 12873): 100 µg/mL (≈ 171 µM) |
